Patent publication US9493472B2, “Substituted benzoxazoles” (BAYER PHARMA AKTIENGESELLSCHAFT, priority 2013, dated 2016)

How the values were obtained:
thrombin [1] = biological target: T1, thrombin (Homo sapiens (Human), UniProt P00734); assay: Thrombin-inhibitory activity in plasma samples (ecarin-activated); format: biochemical; details: citrate plasma, prothrombinase activated by ecarin, fluorogenic thrombin substrate; in some cases means; read-out: IC50 [nM] thrombin inhibition in plasma samples
Protocol: To determine the inhibition of thrombin in plasma samples, plasma […] is activated by ecarin. Thrombin activity and/or its inhibition by potential inhibitors is/are then measured fluorenscently by addition of a substrate.
The substances to be tested are dissolved in various concentrations in dimethyl sulphoxide and diluted with water. In white 96-well flat-bottomed plates, 20 μl of substance dilution are mixed with 20 μl of ecarin solution (ecarin reagent, from Sigma E-0504, final concentration 20 mU per reaction) in Ca buffer (200 mM Hepes+560 mM sodium chloride+10 mM calcium chloride+0.4% PEG) or with 20 μl of Ca buffer (as unstimulated control). Furthermore, 20 μl of fluorogenic thrombin substrate (from Bachem I-1120, final concentration 50 μmol/l) and 20 μl of citrate plasma (from Octapharma) are added, and the mixture is homogenized well. The plate is measured in a SpectraFluorplus Reader using a 360 nm excitation filter and a 465 nm emission filter every minute over 20 minutes.

thrombin [2] = biological target: T1, thrombin; assay: Measurement of the thrombin inhibition in buffer; format: biochemical; details: human thrombin 0.06 nmol/l, Tris buffer pH 7.4, 22° C.; substrate Boc-Asp(OBzl)-Pro-Arg-AMC; in some cases means
Protocol: To determine the thrombin inhibition of the substances listed above, a biochemical test system is constructed in which the conversion of a thrombin substrate is used for determining the enzymatic activity of human thrombin. Here, thrombin cleaves aminomethylcoumarin, which is measured fluorescently, from the peptic substrate. The determinations are carried out in microtitre plates.
Substances to be tested are dissolved in various concentrations in dimethyl sulphoxide and incubated for 15 min with human thrombin (0.06 nmol/l dissolved in 50 mmol/l of Tris buffer [C,C,C-tris(hydroxymethyl)aminomethane], 100 mmol/l of sodium chloride, 0.1% BSA [bovine serum albumin], pH 7.4) at 22° C. The substrate (5 μmol/l Boc-Asp(OBzl)-Pro-Arg-AMC from Bachem) is then added. After 30 min of incubation, the sample is excited at a wavelength of 360 nm and the emission is measured at 460 nm. The measured emissions of the test batches with test substance are compared to the control batches without test substance (only dimethyl sulphoxide instead of test substance in dimethyl sulphoxide) and the IC50 values are calculated from the concentration/activity relationships.

[3] = system: plasma (prothrombin time); assay: Anticoagulatory activity: prothrombin time (PT) in plasma; details: 37° C., 3 minutes incubation, plasma species not given, in some cases means, read-out: IC50 [μM] (concentration of test substance which effects a doubling of the prothrombin time)
Protocol: The anticoagulatory activity of the test substances is determined in vitro in human plasma, rabbit plasma and rat plasma. To this end, blood is drawn off in a mixing ratio of sodium citrate/blood of 1:9 using a 0.11 molar sodium citrate solution as receiver. Immediately after the blood has been drawn off, it is mixed thoroughly and centrifuged at about 4000 g for 15 minutes. The supernatant is pipetted off.
The prothrombin time (PT, synonyms: thromboplastin time, quick test) is determined in the presence of varying concentrations of test substance or the corresponding solvent using a commercial test kit (Neoplastin® from Boehringer Mannheim or Hemoliance® RecombiPlastin from Instrumentation Laboratory). The test compounds are incubated with the plasma at 37° C. for 3 minutes. Coagulation is then started by addition of thromboplastin, and the time when coagulation occurs is determined. The concentration of test substance which effects a doubling of the prothrombin time is determined Representative activity data from this test are given in Table 3 below (in some cases as means of individual determinations): […]

| SMILES | IC50 (thrombin [1]) [nM] | IC50 (thrombin [2]) [nM] | IC50 [3] [µM] |
| --- | --- | --- | --- |
| COc1cc(C(=O)N2CCC(O)C(C)C2)cc2nc(NC(CF)c3cccc(Cl)c3)oc12 (single isomer, unassigned) [Example 2, (2-{[1-(3-Chlorophenyl)-2-fluoroethyl]amino}-7-methoxy-1,3-benzoxazol-5-yl)(4-hydroxy-3-methylpiperidin-1-yl)methanone] | 31 | 31 |  |
| COc1cc(C(=O)N2CCC(O)C(C)C2)cc2nc(NC(CF)c3cccc(Cl)c3)oc12 (single isomer, unassigned) [Example 3, (2-{[1-(3-Chlorophenyl)-2-fluoroethyl]amino}-7-methoxy-1,3-benzoxazol-5-yl)(4-hydroxy-3-methylpiperidin-1-yl)methanone] | 11.6 | 2.4 | 1.8 |
| COc1cc(C(=O)N2CC(C)(C)OCC2CO)cc2nc(NC(CF)c3cccc(Cl)c3)oc12 (single isomer, unassigned) [Example 5, (2-{[1-(3-Chlorophenyl)-2-fluoroethyl]amino}-7-methoxy-1,3-benzoxazol-5-yl)[5-(hydroxymethyl)-2,2-dimethylmorpholin-4-yl]methanone] | 4.8 | 1.1 |  |
| COc1cc(C(=O)N2CC(C)(C)OCC2CO)cc2nc(NC(CF)c3cccc(Cl)c3)oc12 (single isomer, unassigned) [Example 6, (2-{[1-(3-Chlorophenyl)-2-fluoroethyl]amino}-7-methoxy-1,3-benzoxazol-5-yl)[5-(hydroxymethyl)-2,2-dimethylmorpholin-4-yl]methanone] | 16.5 | 9.7 |  |
| COc1cc(C(=O)N2CC(C)OC[C@H]2C)cc2nc(NC(CF)c3cccc(Cl)c3)oc12 (single isomer, unassigned) [Example 7] | 11.4 | 5.3 | 1.9 |
| COc1cc(C(=O)N2CC(C)OC[C@H]2C)cc2nc(NC(CF)c3cccc(Cl)c3)oc12 (single isomer, unassigned) [Example 8] | 25.3 | 11 |  |
| COc1cc(C(=O)N2CC(C)(CCO)OC[C@H]2C)cc2nc(NC(CF)c3cccc(Cl)c3)oc12 (single isomer, unassigned) [Example 10] | 1400 | 130 |  |
| COc1cc(C(=O)N2CC(C)(CCO)OC[C@H]2C)cc2nc(NC(CF)c3cccc(Cl)c3)oc12 (single isomer, unassigned) [Example 11] | 5.7 | 0.01 | 1 |
| COc1cc(C(=O)N2CC3CCN3C(=O)C2C)cc2nc(NC(CF)c3cccc(Cl)c3)oc12 (single isomer, unassigned) [Example 23, 4-[(2-{[1-(3-Chlorophenyl)-2-fluoroethyl]amino}-7-methoxy-1,3-benzoxazol-5-yl)carbonyl]-3-methyl-1,4-diazabicyclo[4.2.0]octan-2-one] | 4.7 | 1.7 |  |
| COc1cc(C(=O)N2CC(C)OC[C@@H]2CC(=O)O)cc2nc(NC(CF)c3cccc(Cl)c3)oc12 (single isomer, unassigned) [Example 24] | 4.5 |  |  |
| CCO[C@@H]1CC(CO)N(C(=O)c2cc(OC)c3oc(NC(CF)c4cccc(Cl)c4)nc3c2)C1 (single isomer, unassigned) [Example 27] | 4.6 | 0.16 | 1 |
| CCO[C@@H]1CC(CO)N(C(=O)c2cc(OC)c3oc(NC(CF)c4cccc(Cl)c4)nc3c2)C1 (single isomer, unassigned) [Example 28] | 56 | 2.3 |  |
| CCO[C@@H]1CC(CCO)N(C(=O)c2cc(OC)c3oc(NC(CF)c4cccc(Cl)c4)nc3c2)C1 (single isomer, unassigned) [Example 30] | 46 | 5.3 |  |
| CCO[C@@H]1CC(CCO)N(C(=O)c2cc(OC)c3oc(NC(CF)c4cccc(Cl)c4)nc3c2)C1 (single isomer, unassigned) [Example 31] | 5 | 0.54 |  |
| COc1cc(C(=O)N2CC3(CC3)NC(=O)C2C)cc2nc(NC(CF)c3cccc(Cl)c3)oc12 (single isomer, unassigned) [Example 33, 7-[(2-{[1-(3-Chlorophenyl)-2-fluoroethyl]amino}-7-methoxy-1,3-benzoxazol-5-yl)carbonyl]-6-methyl-4,7-diazaspiro[2.5]octan-5-one] | 8.4 | 0.38 | 0.8 |
| COc1cc(C(=O)N2CC3(CC3)NC(=O)C2C)cc2nc(NC(CF)c3cccc(Cl)c3)oc12 (single isomer, unassigned) [Example 34, 7-[(2-{[1-(3-Chlorophenyl)-2-fluoroethyl]amino}-7-methoxy-1,3-benzoxazol-5-yl)carbonyl]-6-methyl-4,7-diazaspiro[2.5]octan-5-one] | 170 | 20 |  |
| COc1cc(C(=O)N2CCC(O)C(C)C2)cc2nc(NC(CF)c3cccc(Cl)c3)oc12 (stereo not drawn) [Example 1, (2-{[1-(3-Chlorophenyl)-2-fluoroethyl]amino}-7-methoxy-1,3-benzoxazol-5-yl)(4-hydroxy-3-methylpiperidin-1-yl)methanone] | 21 | 3.2 |  |
| COc1cc(C(=O)N2CC(C)(C)OCC2CO)cc2nc(NC(CF)c3cccc(Cl)c3)oc12 (stereo not drawn) [Example 4, (2-{[1-(3-Chlorophenyl)-2-fluoroethyl]amino}-7-methoxy-1,3-benzoxazol-5-yl)[5-(hydroxymethyl)-2,2-dimethylmorpholin-4-yl]methanone] | 9.8 | 1.7 |  |
| COc1cc(C(=O)N2CC(C)(CCO)OC[C@H]2C)cc2nc(NC(CF)c3cccc(Cl)c3)oc12 (stereo partly drawn) [Example 9, (2-{[1-(3-Chlorophenyl)-2-fluoroethyl]amino}-7-methoxy-1,3-benzoxazol-5-yl)[(5R)-2-(2-hydroxyethyl)-2,5-dimethylmorpholin-4-yl]methanone] | 14.3 | 0.2 |  |
| COc1cc(C(=O)N2CC(C)OCC2CCO)cc2nc(NC(CF)c3cccc(Cl)c3)oc12 (stereo not drawn) [Example 13, (2-{[1-(3-Chlorophenyl)-2-fluoroethyl]amino}-7-methoxy-1,3-benzoxazol-5-yl)[5-(2-hydroxyethyl)-2-methylmorpholin-4-yl]methanone] |  |  | 1.4 |
| COc1cc(C(=O)N2CC(C)OC[C@]23C[C@H](O)C3)cc2nc(NC(CF)c3cccc(Cl)c3)oc12 (stereo partly drawn) [Example 22, (2-{[1-(3-Chlorophenyl)-2-fluoroethyl]amino}-7-methoxy-1,3-benzoxazol-5-yl)(cis-2-hydroxy-7-methyl-8-oxa-5-azaspiro[3.5]non-5-yl)methanone] | 3.8 | 1.6 |  |
| CCO[C@@H]1CC(CO)N(C(=O)c2cc(OC)c3oc(NC(CF)c4cccc(Cl)c4)nc3c2)C1 (stereo partly drawn) [Example 26, (2-{[1-(3-Chlorophenyl)-2-fluoroethyl]amino}-7-methoxy-1,3-benzoxazol-5-yl)[(4R)-4-ethoxy-2-(hydroxymethyl)pyrrolidin-1-yl]methanone] | 2 | 0.19 |  |
| CCO[C@@H]1CC(CCO)N(C(=O)c2cc(OC)c3oc(NC(CF)c4cccc(Cl)c4)nc3c2)C1 (stereo partly drawn) [Example 29, (2-{[1-(3-Chlorophenyl)-2-fluoroethyl]amino}-7-methoxy-1,3-benzoxazol-5-yl)[(4R)-4-ethoxy-2-(2-hydroxyethyl)pyrrolidin-1-yl]methanone] | 15 | 1.1 |  |
| COc1cc(C(=O)N2CC3(CC3)NC(=O)C2C)cc2nc(NC(CF)c3cccc(Cl)c3)oc12 (stereo not drawn) [Example 32, 7-[(2-{[1-(3-Chlorophenyl)-2-fluoroethyl]amino}-7-methoxy-1,3-benzoxazol-5-yl)carbonyl]-6-methyl-4,7-diazaspiro[2.5]octan-5-one] | 7.3 | 0.7 |  |
